Here are results for 19 compounds from US8574563B2 (Bristol-Myers Squibb Company, priority 2006, dated 2013).

The assay deals with HCV 1b-377-neo replicon cells. Nature of the assay: HCV replicon assay, HCV 1b-377-neo replicon cells (1b FRET). The assay is classed as cell-based, Hepatitis C virus genotype 1b. To be noted: Hepatitis C virus, HCV 1b-377-neo replicon cells; HCV 1b genotype; read-out: EC50 range against HCV 1b (Table 2, Range). In outline: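 Compounds tested in HCV genotype 1b-377-neo replicon cells with a FRET read-out. Cells resistant to a reference NS5A inhibitor through a Y2065H NS5A mutation were run alongside wild-type cells.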
For orientation: In antiviral work, replicon cells carry a viral genome segment that copies itself.

One may read the EC50 as the concentration at which the effect is half-maximal. For the compound `COC(=O)NC(C)(C)C(=O)N1[C@@H](C)CC[C@H]1c1nc(-c2ccc(-c3ccc(-c4c[nH]c([C@@H]5CC[C@H](C)N5C(=O)C(C)(C)NC(=O)OC)n4)cc3)cc2)c[nH]1` [Example M156, methyl (2-((2S,5S)-2-(4-(4′-(2-((2S,5S)-1-(2-((methoxycarbonyl)amino)-2-methylpropanoyl)-5-methyl-2-pyrrolidinyl)-1H-imidazol-4-yl)-4-biphenylyl)-1H-imidazol-2-yl)-5-methyl-1-pyrrolidinyl)-1,1-dimethyl-2-oxoethyl)carbamate], the concentration giving a half-maximal response (EC50) was 1 to 99 nM.

Regarding `COC(=O)N[C@@H](C)C(=O)N1[C@@H](C)CC[C@H]1c1nc(-c2ccc(-c3ccc(-c4c[nH]c([C@@H]5CC[C@H](C)N5C(=O)[C@H](C)NC(=O)OC)n4)cc3)cc2)c[nH]1` [Example M157, methyl ((1S)-2-((2S,5S)-2-(4-(4′-(2-((2S,5S)-1-(N-(methoxycarbonyl)-L-alanyl)-5-methyl-2-pyrrolidinyl)-1H-imidazol-4-yl)-4-biphenylyl)-1H-imidazol-2-yl)-5-methyl-1-pyrrolidinyl)-1-methyl-2-oxoethyl)carbamate], the EC50 lay within 0.001 to 0.999 nM. For the compound `CC(C)CC(=O)N1[C@@H](C)CC[C@H]1c1nc(-c2ccc(-c3ccc(-c4c[nH]c([C@@H]5CC[C@H](C)N5C(=O)CC(C)C)n4)cc3)cc2)c[nH]1` [Example M158, 4,4′-(4,4′-biphenyldiyl)bis(2-((2S,5S)-5-methyl-1-(3-methylbutanoyl)-2-pyrrolidinyl)-1H-imidazole)], the EC50 is 1 to 99 nM. For `C[C@H]1CC[C@@H](c2nc(-c3ccc(-c4ccc(-c5c[nH]c([C@@H]6CC[C@H](C)N6C(=O)Cc6ccccc6)n5)cc4)cc3)c[nH]2)N1C(=O)Cc1ccccc1` [Example M159, 4,4′-(4,4′-biphenyldiyl)bis(2-((2S,5S)-5-methyl-1-(phenylacetyl)-2-pyrrolidinyl)-1H-imidazole)], the EC50 was 0.001 to 0.999 nM. The figure for `CC(C)[C@@H](O)C(=O)N1[C@@H](C)CC[C@H]1c1nc(-c2ccc(-c3ccc(-c4c[nH]c([C@@H]5CC[C@H](C)N5C(=O)[C@H](O)C(C)C)n4)cc3)cc2)c[nH]1` [Example M160, (2R,2′R)-1,1′-(4,4′-biphenyldiylbis(1H-imidazole-4,2-diyl((2S,5S)-5-methyl-2,1-pyrrolidinediyl)))bis(3-methyl-1-oxo-2-butanol)] is 1 to 99 nM; for `CC(C)[C@H](O)C(=O)N1[C@@H](C)CC[C@H]1c1nc(-c2ccc(-c3ccc(-c4c[nH]c([C@@H]5CC[C@H](C)N5C(=O)[C@@H](O)C(C)C)n4)cc3)cc2)c[nH]1` [Example M161, (2S,2′S)-1,1′-(4,4′-biphenyldiylbis(1H-imidazole-4,2-diyl((2S,5S)-5-methyl-2,1-pyrrolidinediyl)))bis(3-methyl-1-oxo-2-butanol)] it is 1 to 99 nM. In the case of `COC(=O)N[C@@H](C)C(=O)N1C[C@H](F)C[C@H]1c1ncc(-c2ccc(-c3ccc(-c4cnc([C@@H]5C[C@@H](F)CN5C(=O)[C@H](C)NC(=O)OC)[nH]4)cc3)cc2)[nH]1` [JG-3, methyl ((1S)-2-((2S,4R)-4-fluoro-2-(5-(4′-(2-((2S,4R)-4-fluoro-1-(N-(methoxycarbonyl)-L-alanyl)-2-pyrrolidinyl)-1H-imidazol-5-yl)-4-biphenylyl)-1H-imidazol-2-yl)-1-pyrrolidinyl)-1-methyl-2-oxoethyl)carbamate], the EC50 was in the range of 0.001 to 0.999 nM.

For the compound `COC(=O)N[C@@H](C)C(=O)N1C[C@H](O)C[C@H]1c1ncc(-c2ccc(-c3ccc(-c4cnc([C@@H]5C[C@@H](O)CN5C(=O)[C@H](C)NC(=O)OC)[nH]4)cc3)cc2)[nH]1` [JG-4], the EC50 lay in the range of 1 to 99 nM. With `COC(=O)N[C@H](C(=O)N1C[C@H](O)C[C@H]1c1ncc(-c2ccc(-c3ccc(-c4cnc([C@@H]5C[C@@H](O)CN5C(=O)[C@@H](NC(=O)OC)C(C)C)[nH]4)cc3)cc2)[nH]1)C(C)C` [JG-5, methyl ((1S)-1-(((2S,4R)-4-hydroxy-2-(5-(4′-(2-((2S,4R)-4-hydroxy-1-((2S)-2-((methoxycarbonyl)amino)-3-methylbutanoyl)-2-pyrrolidinyl)-1H-imidazol-5-yl)-4-biphenylyl)-1H-imidazol-2-yl)-1-pyrrolidinyl)carbonyl)-2-methylpropyl)carbamate] the figure was 0.001 to 0.999 nM; with `COC(=O)N[C@H](C(=O)N1C[C@H](O)C[C@H]1c1ncc(-c2ccc(-c3ccc(-c4cnc([C@@H]5C[C@@H](O)CN5C(=O)[C@@H](NC(=O)OC)C5CC5)[nH]4)cc3)cc2)[nH]1)C1CC1` [JG-6, dimethyl (4,4′-biphenyldiylbis(1H-imidazole-5,2-diyl((2S,4R)-4-hydroxy-2,1-pyrrolidinediyl)((1S)-1-cyclopropyl-2-oxo-2,1-ethanediyl)))biscarbamate], 1 to 99 nM.

In the case of `CCN(CC)[C@@H](C(=O)N1C[C@@H](O)C[C@H]1c1ncc(-c2ccc(-c3ccc(-c4cnc([C@@H]5C[C@H](O)CN5C(=O)[C@@H](c5ccccc5)N(CC)CC)[nH]4)cc3)cc2)[nH]1)c1ccccc1` [JG-7, (3S,5S,3′S,5′S)-5,5′-(4,4′-biphenyldiylbis(1H-imidazole-5,2-diyl))bis(1-((2R)-2-(diethylamino)-2-phenylacetyl)-3-pyrrolidinol)], the EC50 lay in the range of 0.001 to 0.999 nM. As for `COC(=O)N[C@@H](C)C(=O)N1C[C@@H](O)C[C@H]1c1ncc(-c2ccc(-c3ccc(-c4cnc([C@@H]5C[C@H](O)CN5C(=O)[C@H](C)NC(=O)OC)[nH]4)cc3)cc2)[nH]1` [JG-8, methyl ((1S)-2-((2S,4S)-4-hydroxy-2-(5-(4′-(2-((2S,4S)-4-hydroxy-1-(N-(methoxycarbonyl)-L-alanyl)-2-pyrrolidinyl)-1H-imidazol-5-yl)-4-biphenylyl)-1H-imidazol-2-yl)-1-pyrrolidinyl)-1-methyl-2-oxoethyl)carbamate], the EC50 is 0.001 to 0.999 nM.

Regarding `COC(=O)N[C@H](C(=O)N1C[C@@H](O)C[C@H]1c1ncc(-c2ccc(-c3ccc(-c4cnc([C@@H]5C[C@H](O)CN5C(=O)[C@@H](NC(=O)OC)C(C)C)[nH]4)cc3)cc2)[nH]1)C(C)C` [JG-9, methyl ((1S)-1-(((2S,4S)-4-hydroxy-2-(5-(4′-(2-((2S,4S)-4-hydroxy-1-((2S)-2-((methoxycarbonyl)amino)-3-methylbutanoyl)-2-pyrrolidinyl)-1H-imidazol-5-yl)-4-biphenylyl)-1H-imidazol-2-yl)-1-pyrrolidinyl)carbonyl)-2-methylpropyl)carbamate], the EC50 is 0.001 to 0.999 nM. With `COC(=O)N[C@H](C(=O)N1C[C@@H](F)C[C@H]1c1ncc(-c2ccc(-c3ccc(-c4cnc([C@@H]5C[C@H](F)CN5C(=O)[C@@H](NC(=O)OC)C(C)C)[nH]4)cc3)cc2)[nH]1)C(C)C` [JG-10, methyl ((1S)-1-(((2S,4S)-4-fluoro-2-(5-(4′-(2-((2S,4S)-4-fluoro-1-((2S)-2-((methoxycarbonyl)amino)-3-methylbutanoyl)-2-pyrrolidinyl)-1H-imidazol-5-yl)-4-biphenylyl)-1H-imidazol-2-yl)-1-pyrrolidinyl)carbonyl)-2-methylpropyl)carbamate] the figure was 1 to 99 nM; with `COC(=O)N[C@@H](CC(C)C)C(=O)N1C[C@H](F)C[C@H]1c1ncc(-c2ccc(-c3ccc(-c4cnc([C@@H]5C[C@@H](F)CN5C(=O)[C@H](CC(C)C)NC(=O)OC)[nH]4)cc3)cc2)[nH]1` [JG-12, methyl ((1S)-1-(((2S,4R)-4-fluoro-2-(5-(4′-(2-((2S,4R)-4-fluoro-1-((2S)-2-((methoxycarbonyl)amino)-4-methylpentanoyl)-2-pyrrolidinyl)-1H-imidazol-5-yl)-4-biphenylyl)-1H-imidazol-2-yl)-1-pyrrolidinyl)carbonyl)-3-methylbutyl)carbamate], 0.001 to 0.999 nM; with `COC(=O)N[C@@H](C)C(=O)N1C[C@@H](F)C[C@H]1c1ncc(-c2ccc(-c3ccc(-c4cnc([C@@H]5C[C@H](F)CN5C(=O)[C@H](C)NC(=O)OC)[nH]4)cc3)cc2)[nH]1` [JG-13, methyl ((1S)-2-((2S,4S)-4-fluoro-2-(5-(4′-(2-((2S,4S)-4-fluoro-1-(N-(methoxycarbonyl)-L-alanyl)-2-pyrrolidinyl)-1H-imidazol-5-yl)-4-biphenylyl)-1H-imidazol-2-yl)-1-pyrrolidinyl)-1-methyl-2-oxoethyl)carbamate], 1 to 99 nM. As for `CCN(CC)[C@@H](C(=O)N1C[C@@H](F)C[C@H]1c1ncc(-c2ccc(-c3ccc(-c4cnc([C@@H]5C[C@H](F)CN5C(=O)[C@H](C)NC(=O)OC)[nH]4)cc3)cc2)[nH]1)c1ccccc1` [JG-14, methyl ((1S)-2-((2S,4S)-2-(5-(4′-(2-((2S,4S)-1-((2R)-2-(diethylamino)-2-phenylacetyl)-4-fluoro-2-pyrrolidinyl)-1H-imidazol-5-yl)-4-biphenylyl)-1H-imidazol-2-yl)-4-fluoro-1-pyrrolidinyl)-1-methyl-2-oxoethyl)carbamate], the EC50 lay within 0.001 to 0.999 nM. For the compound `CCN(CC)[C@@H](C(=O)N1C[C@@H](F)C[C@H]1c1ncc(-c2ccc(-c3ccc(-c4cnc([C@@H]5C[C@H](F)CN5C(=O)[C@@H](NC(=O)OC)C(C)C)[nH]4)cc3)cc2)[nH]1)c1ccccc1` [JG-15, methyl ((1S)-1-(((2S,4S)-2-(5-(4′-(2-((2S,4S)-1-((2R)-2-(diethylamino)-2-phenylacetyl)-4-fluoro-2-pyrrolidinyl)-1H-imidazol-5-yl)-4-biphenylyl)-1H-imidazol-2-yl)-4-fluoro-1-pyrrolidinyl)carbonyl)-2-methylpropyl)carbamate], the EC50 lay within 0.001 to 0.999 nM. `COC(=O)N[C@H](C(=O)N1C[C@H](F)C[C@H]1c1ncc(-c2ccc(-c3ccc(-c4cnc([C@@H]5C[C@@H](F)CN5C(=O)[C@@H](NC(=O)OC)C(C)C)[nH]4)cc3)cc2)[nH]1)C(C)C` [JG-16, methyl ((1S)-1-(((2S,4R)-4-fluoro-2-(5-(4′-(2-((2S,4R)-4-fluoro-1-((2S)-2-((methoxycarbonyl)amino)-3-methylbutanoyl)-2-pyrrolidinyl)-1H-imidazol-5-yl)-4-biphenylyl)-1H-imidazol-2-yl)-1-pyrrolidinyl)carbonyl)-2-methylpropyl)carbamate]: the EC50 was 0.001 to 0.999 nM.
